# Measured values: patent publication US20230381142A1, “ANTILEISHMANIAL COMPOUNDS, COMPOSITIONS AND USE THEREOF” (TRUSTEES OF BOSTON UNIVERSITY, priority 2022, published 2023)
# pEC50: −log10 of the molar value.
# What was measured:
# [1] = test system: L. braziliensis (strain BA788) in J774 cells; assay: J774 luciferase infection assay (Assay Conditions E); format: cell-based, Leishmania braziliensis; conditions: for L. braziliensis amastigotes EC75 (J774 cells): footnote e
# Protocol: Assay Conditions E: J774 cells (ATCC J774A.1 were grown in DMEM supplemented with 10% Fetal Bovine Serum (FBS) and 1% Penicillin-Streptomycin at 37° C. in 5% CO2. Leishmania parasites expressing luciferase and GFP were grown as described in Front. Cell. Infect. Microbiol (2019) 9:237. J774 cells were seeded in microwell plates at 3×10^5 cells/mL density. Cells were washed with PBS and incubated with complete DMEM medium containing stationary phase Leishmania promastigotes (L. major: strain Friedlin; L. braziliensis, strain BA788) at a 1:10 parasite-cell ratio for 24 h. Cells were washed with PBS. Cells and compounds were incubated for 48 h at 37° C. and 5% C02. Compounds were tested in 8-point 2-fold serial dilution in 4 technical replicates, and 2 biological replicates. After 48 h, OneTiterGlo (Promega) (100 μl) was added to each well. Plates were incubated for 15 min and bioluminescence was measured using a plate reader (Molecular Devices). Effective concentration inducing 75% activity (EC75) was calculated using GraphPad Prism Software (version 9.0).
# [2] = test system: L. donovani intracellular amastigotes in B10R cells; assay: UCSD L. donovani infection assay (Assay Conditions D); format: cell-based; conditions: B10R cells; for L. donovani amastigotes EC75 (B10R cells): footnote d; for pEC50: Leishmania donovani, values marked d, read-out: L. donovani amastigotes EC50 (B10R cells)
# Method in brief: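 Compounds, either single-point at 10 μM or 10-point 2-fold series (3 technical, 2 biological replicates), were incubated 72 h at 37° C. with B10R host cells co-seeded with day-7 stationary L. donovani promastigotes (20:1). DAPI-stained nuclei imaging yielded intracellular parasite EC50 and host-cell CC50.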
# [3] = UCSD infection assay, host cell cytotoxicity (CC50); format: cell-based; conditions: mouse, B10R host cells infected with L. donovani
# Protocol: (§1) Assay Conditions D: B10R cells (CVCL_0155) were seeded at 300 cells/well, and L. donovani WT promastigotes in stationary phase (7th day after passage) were added at 6,000 parasites/well (ratio of 20 parasites/cell). Both cells and parasites were seeded in DMEM High-Glucose medium (Gibco, cat. no. 11995065) containing 5% Fetal Bovine Serum (Sigma-Aldrich, cat. no. F2442) and 1% Penicillin-Streptomycin (Gibco, cat. no. 15140122). Cells and parasites were incubated in the presence of the compounds for 72 h at 37° C. and 5% C02. Plates were then fixed with 4% formaldehyde solution for at least 1 h, then washed with 1×PBS and stained with 5 μg/mL DAPI. Plates were read using an ImageXpress microscope (Molecular Devices) and analyzed by MetaXpress software (Molecular Devices) using a custom module optimized for this assay. […] Compounds were tested in a 10-point 2-fold serial dilution in 3 technical replicates, and 2 biological replicates. After 72 h, plates were fixed and stained with DAPI as described above. Images were acquired on an ImageXpress microscope, and analyzed using the MetaXpress custom module.
# as §1, with “Compounds were obtained as 0.2 μmoles of dried film for primary single point screening. Each compound was diluted in DMSO to 10 μM final testing concentration. These compounds were tested in 2 biological replicates. The compounds were pre-spotted onto 384-well assay plates in single concentration.” for “Assay Conditions D:”, “CO2.” for “C02.”, “module. The DRCs were plotted, half-effective concentration (EC50) and half-cytotoxic concentration (CC50) were calculated using GraphPad Prism Software, version 6.05 (GraphPad Software, San Diego, CA).” for “module.”
# [4] = test system: L. donovani intracellular amastigotes infecting THP-1 cells; assay: High content intracellular amastigote assay in THP-1 cells (Assay Conditions B; CDIPD screen); format: cell-based, Leishmania donovani; conditions: for L. donovani amastigotes % GI at 10 μM (THP-1 cells): footnote b
# Protocol: (§2) Assay Conditions B: THP-1 cells (human acute monocytic leukemia cell line—ATCC TIB202) were grown in RPMI supplemented with 10% Fetal Bovine Serum (FBS) and 50 μM 2-mercaptoethanol at 37° C. in 5% CO2. THP-1 were seeded in microwell plates at 5×10^5 cells/mL density and treated with 0.1 μM phorbol myristate acetate (PMA, Sigma) at 37° C. for 48 h for differentiation into adherent, non-dividing macrophages. After activation by PMA, cells were washed and incubated with complete RPMI medium containing stationary phase Leishmania promastigotes (L. major: strain LV39; L. donovani, strain 1S/Cl2D) at a 1:15 parasite-cell ratio. Compounds were added and incubated at 37° C. for 72 h. Cells were then washed with phosphate-buffered saline (PBS), fixed for 30 minutes with 4% formaldehyde, rinsed again with PBS, stained for 2 h with 4′,6′-diamidino-2-phenylindole (DAPI 300 nM) and finally washed with PBS. In a collaborative effort to identify new antileishmanial chemotypes with minimal host cell cytotoxicity, compounds from the Boston University Center for Molecular Discovery (BUCMD) screening collection were assessed in a phenotypic, high content primary screen at the University of California's Center for Discovery and Innovation in Parasitic Diseases (CDIPD) for the ability to inhibit growth of L. donovani intracellular amastigotes infecting THP-1 cells. […] Dose-response testing in L. donovani (both intracellular amastigotes and promastigotes) confirmed concentration-dependent growth inhibition of both morphologies of the parasite at low micromolar EC50 values for both compounds (Table 1).
# THP-1 cells = assay: Host THP-1 cell cytotoxicity in the CDIPD high content screen; format: cell-based, human; conditions: Homo sapiens, THP-1; 10 μM; footnote b; read-out: THP-1 host cell % growth inhibition at 10 μM
# Protocol: as §2
# [5] = test system: L. donovani intracellular amastigotes infecting THP-1 macrophages; assay: GSK intramacrophage L. donovani assay (LD AMMAC, inMac; Assay Conditions C); format: cell-based; conditions: Leishmania donovani; THP-1 cells; values marked c; read-out: L. donovani amastigotes EC50 (THP-1 cells)
# Method in brief: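 EC50 values come from counting amastigotes per infected THP-1 macrophage (AMMAC). Parallel read-outs give percentage of infected cells per well (INFCELL) and a macrophage-number toxicity EC50 (MAC).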
# [6] = GSK inMac assay, host cell toxicity readout (LD MAC); format: cell-based, human; conditions: human; footnote c; read-out: THP-1 Host Cell CC50
# Method in brief: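 MAC EC50 reflects THP-1 host cell counts, measured within GSK's inMac L. donovani infection assay that also scores intracellular amastigotes and infected-cell percentage.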
smiles,measurement,setting,value
Cc1cc(N2C(=O)c3[nH]nc(CC(C)C)c3C2c2ccccc2Cl)ccn1 (centres unmarked) [BUCMD00639],L. braziliensis amastigotes EC75 (J774 cells),[1],>10 µM
same,L. donovani amastigotes EC75 (B10R cells),[2],0.4 µM
same,CC50 at 72 h,[3]; footnote d,20 µM
COc1ccc(N2C(=O)c3[nH]nc(CC(C)C)c3C2c2ccccc2F)cn1 (centres unmarked) [BUCMD00691],"L. braziliensis amastigotes EC75 (μM, J774 cells)",[1],>10 µM
same,"L. donovani amastigotes EC75 (μM, B10R cells)",[2],4.9 µM
COc1ccc(N2C(=O)c3[nH]nc(CC(C)C)c3C2c2ccc(F)c(F)c2)cn1 (centres unmarked) [BUCMD00692],"L. braziliensis amastigotes EC75 (μM, J774 cells)",[1],>10 µM
same,"L. donovani amastigotes EC75 (μM, B10R cells)",[2],>10 µM
CC(C)Cc1n[nH]c2c1C(c1ccc(F)cc1Cl)N(c1cncc(F)c1)C2=O (centres unmarked) [BUCMD00694],L. braziliensis amastigotes EC75 (J774 cells),[1],>10 µM
same,L. donovani amastigotes EC75 (B10R cells),[2],0.4 µM
same,CC50 at 72 h,[3]; footnote d,10 µM
C#CCCOc1ccc(C2c3c(CC(C)C)n[nH]c3C(=O)N2c2ccc(OC)cc2)c(Cl)c1 (centres unmarked) [BUCMD00728],"L. braziliensis amastigotes EC75 (μM, J774 cells)",[1],>10 µM
same,"L. donovani amastigotes EC75 (μM, B10R cells)",[2],>10 µM
COc1ncc(N2C(=O)c3[nH]nc(CC(C)C)c3C2c2ccc(F)cc2C)cc1F (centres unmarked) [BUCMD00729],L. braziliensis amastigotes EC75 (J774 cells),[1],2.0 µM
same,L. donovani amastigotes EC75 (B10R cells),[2],0.4 µM
same,CC50 at 72 h,[3]; footnote d,6.31 µM
C#CCCCCOc1ccc(C2c3c(CC(C)C)n[nH]c3C(=O)N2c2ccc(OC)nc2)c(Cl)c1 (centres unmarked) [BUCMD00738],"L. braziliensis amastigotes EC75 (μM, J774 cells)",[1],>10 µM
same,"L. donovani amastigotes EC75 (μM, B10R cells)",[2],>10 µM
same,CC50 at 72 h,[3]; host B10R cells,7.94 µM
COc1ccc(N2C(=O)c3[nH]nc(C(C)C)c3C2c2ccc(C)cc2)cc1 (centres unmarked) [CMLD007169],L. donovani amastigotes % GI at 10 μM (THP-1 cells),[4],0.0%
same,inhibition at 10 µM,THP-1 cells,< 10%
COc1ccc(N2C(=O)c3[nH]nc(C(C)C)c3C2c2ccc(F)cc2)cc1 (centres unmarked) [CMLD007188],L. donovani amastigotes % GI at 10 μM (THP-1 cells),[4],0.0%
same,inhibition at 10 µM,THP-1 cells,< 10%
COc1ccc(N2C(=O)c3[nH]nc(-c4ccccc4)c3C2c2ccccc2)cc1 (centres unmarked) [CMLD007203],L. donovani amastigotes % GI at 10 μM (THP-1 cells),[4],0.0%
same,inhibition at 10 µM,THP-1 cells,< 10%
COc1ccc(N2C(=O)c3[nH]nc(C)c3C2c2ccccc2)cc1 (centres unmarked) [CMLD007219],L. donovani amastigotes % GI at 10 μM (THP-1 cells),[4],0.0%
same,inhibition at 10 µM,THP-1 cells,< 10%
COc1ccc(N2C(=O)c3[nH]nc(C)c3C2c2ccc(F)cc2)cc1 (centres unmarked) [CMLD007221],L. donovani amastigotes % GI at 10 μM (THP-1 cells),[4],0.0%
same,inhibition at 10 µM,THP-1 cells,< 10%
COc1ccc(N2C(=O)c3[nH]nc(-c4ccccc4)c3C2c2ccc(F)cc2)cc1 (centres unmarked) [CMLD007235],L. donovani amastigotes % GI at 10 μM (THP-1 cells),[4],0.0%
same,inhibition at 10 µM,THP-1 cells,30%
COc1ccc(N2C(=O)c3[nH]nc(C)c3C2c2ccc(C)cc2)cc1 (centres unmarked) [CMLD007247],L. donovani amastigotes % GI at 10 μM (THP-1 cells),[4],0.0%
same,inhibition at 10 µM,THP-1 cells,< 10%
COc1ccc(N2C(=O)c3[nH]nc(-c4ccccc4)c3C2c2ccc(C)cc2)cc1 (centres unmarked) [CMLD007262],L. donovani amastigotes % GI at 10 μM (THP-1 cells),[4],0.0%
same,inhibition at 10 µM,THP-1 cells,< 10%
COc1ccc(N2C(=O)c3[nH]nc(C(C)C)c3C2c2ccccc2)cc1 (centres unmarked) [CMLD007286],L. donovani amastigotes % GI at 10 μM (THP-1 cells),[4],0.0%
same,inhibition at 10 µM,THP-1 cells,< 10%
CC(C)Cc1n[nH]c2c1C(c1ccccc1)N(c1ccccc1)C2=O (centres unmarked) [CMLD007421],L. donovani amastigotes % GI at 10 μM (THP-1 cells),[4],0.0%
same,inhibition at 10 µM,THP-1 cells,< 10%
Cc1ccc(C2c3c(CC(C)C)n[nH]c3C(=O)N2c2ccccc2)cc1 (centres unmarked) [CMLD007424],L. donovani amastigotes % GI at 10 μM (THP-1 cells),[4],81.0%
same,inhibition at 10 µM,THP-1 cells,35%
CC(C)Cc1n[nH]c2c1C(c1ccc(F)cc1)N(c1ccccc1)C2=O (centres unmarked) [CMLD007425],L. donovani amastigotes % GI at 10 μM (THP-1 cells),[4],15.0%
same,inhibition at 10 µM,THP-1 cells,13%
COc1ccc(N2C(=O)c3[nH]nc(CC(C)C)c3C2c2ccc(C)cc2)cc1 (centres unmarked) [CMLD007430],L. donovani amastigotes % GI at 10 μM (THP-1 cells),[4],0.0%
same,inhibition at 10 µM,"[4]; Leishmania donovani, THP-1, read-out: inhibition at 10 μM (initial screening)",0%
same,inhibition at 10 µM,THP-1 cells,< 10%
COc1ccc(N2C(=O)c3[nH]nc(CC(C)C)c3C2c2ccc(F)cn2)cc1 (centres unmarked) [CMLD011100],pEC50,[5],5.00
same,L. braziliensis amastigotes EC75 (J774 cells),[1],>10 µM
same,CC50,[6],> 50 µM
same,L. donovani amastigotes EC75 (B10R cells),[2],4.4 µM
COc1ccccc1C1c2c(CC(C)C)n[nH]c2C(=O)N1c1ccc(N(C)C)cc1 (centres unmarked) [CMLD011552],L. braziliensis amastigotes EC75 (J774 cells),[1],>10 µM
same,CC50,[6],3.5 µM
same,L. donovani amastigotes EC75 (B10R cells),[2],0.1 µM
same,pEC50,[2],7.00
same,CC50 at 72 h,[3]; footnote d,3.98 µM
Cc1cc(F)ccc1C1c2c(CC(C)C)n[nH]c2C(=O)N1c1ccc(Br)cc1 (centres unmarked) [CMLD011565],L. braziliensis amastigotes EC75 (J774 cells),[1],5.0 µM
same,CC50,[6],3 µM
same,L. donovani amastigotes EC75 (B10R cells),[2],0.1 µM
same,pEC50,[2],7.00
same,CC50 at 72 h,[3]; footnote d,3.98 µM
